≈ marks a conversion by molar mass, not a printed value. Read-outs that look alike come from different tables or passages of the source.
What was measured:
S. epidermidis biofilm [1] = experiment: HTS live biofilm assay (resazurin metabolic activity); format: cell-based; details: Staphylococcus epidermidis, dose-response
A. baumannii = experiment: MIC determination (CLSI, Mueller Hinton broth), planktonic cultures; format: cell-based, Acinetobacter baumannii; details: MH, Aerobic; for MIC: Acinetobacter baumannii, read-out: Minimum Inhibition Concentration
Description: (§1) A standard protocol for determining the MIC of a specific compound as outlined by the Clinical and Laboratory Standards Institute (CLSI) was used, based on growth of the selected bacteria in Mueller Hinton (MH) broth with subsequent 2-fold dilutions of compounds of interest. Following the CLSI protocols, the MIC of each broad spectrum “hit” compound was performed in all 3 bacterial species in both aerobic and anaerobic conditions. All bacteria were grown in MH broth for 18 hrs at 37° C. The cells were then diluted 100-fold into MH broth containing compounds at concentrations ranging from 0.40-50 μM in the presence of either KNO3 or glucose to allow bacterial growth under anaerobic condition. After 24 hrs of incubation, cell growth was measured at OD600 using a SpectraMax 190 Absorbance Microplate Reader.
(§2) The HTS and CLSM assays identified and confirmed compounds that can inhibit biofilms formation in aerobic growth conditions. However, P. aeruginosa and S. epidermidis are capable of growth under anaerobic as well as aerobic conditions. […] The Minimal Inhibitory Concentrations (MIC) of the four broad agent hit compounds under both aerobic and anaerobic conditions of planktonic P. aeruginosa and S. epidermidis cultures were determined to evaluate compound efficacy in different growth conditions. The MICs for A. baumannii were determined only in aerobic conditions. To examine growth in aerobic conditions, bacteria were grown in either Mueller Hinton (MH) media only, MH media in the presence of 1% KNO3, or MH in the presence of 1% glucose. For MIC determinations under anaerobic conditions, growth was examined in MH media with 1% KNO3 or with 1% glucose.

P. aeruginosa [2] = experiment: as above; format: cell-based, Pseudomonas aeruginosa; details: for MIC: Pseudomonas aeruginosa
Description: as §1, §2

P. aeruginosa [3] = experiment: HTS total bacterial growth assay (optical density OD560); format: cell-based, Pseudomonas aeruginosa; details: for AC50: Pseudomonas aeruginosa, 10 point dose-response 0.1-50 μM, read-out: Total Bacteria Growth AC50
From the text: (§3) Each HTS tier consisted of: (i) primary screening, (ii) confirmation screening and (iii) dose-response curve screening. Each tier of HTS included three distinct biological process assays. The first assay was an optical density measurement of bacteria growth in the presence of each compound reported as a total bacteria growth. In the second assay, resazurin solution was used as an indicator of metabolic activity to measure the live bacteria in the biofilms, reported as live biofilm. The final assay was crystal violet staining, which indicated the amount of biofilm formation and the effect of each compound on this process, reported as total biofilm formation.
(§4) Briefly, stationary phase bacteria grown in L-broth were diluted 1:200 into fresh L-broth and 50 μM of each test compound. After 20-24 hours, the optical density (OD560) of each suspension was measured using Zeiss Plate::Vision with a 560 BP filter (560 nm, 2.5% light intensity, 1 mm focus to bottom of plate, and exposure time of 100 ms). To measure bacterial viability in the biofilm, 50 μl of a 5 mg/ml resazurin solution in L-broth was added to each well after washing 3 times with 50 μl of PBS. The plates were then incubated at 37° C. for 30 or 180 min for A. baumannii and P. aeruginosa biofilms, respectively. Fluorescence was measured using Zeiss Plate::Vision at excitation and emission wavelengths of 535 and 580 nm, 100 ms exposure time, 2.5% intensity and a 2 mm focus to the bottom of the biofilms. To assess biofilm formation, plates were washed 3 times with PBS and then 50 μl of 0.01% of crystal violet was added to each well to assess bacterial biofilm formation as described in a similar borosilicate tube assay by O'Toole and Kolter. After incubation at room temperature for 30 min and removal of the crystal violet solution by washing with PBS, 95% ethanol was added to solubilize the crystal violet followed by incubation for 20 min at room temperature. Finally, the optical density of each plate was determined using measured by Zeiss Plate::Vision using the same settings used to measure total bacterial growth. These 3 steps were used in each of the three tiers for the HTS process: (i) single point primary screening at 10 μM, (ii) triplicate confirmation of hits from (i) at 10 μM and (iii) determination of AC50 values in 10 point dose-response at a concentration range of 0.1-50 μM) in hits from (ii). The AC50 represents the concentration of compound that inhibits 50% of bacterial growth, bacterial viability, or biofilm formation. Genedata Screener® Assay Analyzer Software (Ver. 9.0.0 Standard) was used to analyze data from all assay tiers. Compounds with an AC50 of less than 20 μM in one of the biological assays from the dose response screen were subject to additional investigation.

S. epidermidis = experiment: as above; format: cell-based; details: Staphylococcus epidermidis, dose-response, read-out: Total Bacteria Growth AC50
From the text: as §3, §4

S. epidermidis biofilm [4] = experiment: HTS total biofilm formation assay (crystal violet staining); format: cell-based; details: Staphylococcus epidermidis, dose-response
From the text: as §3, §4

A. baumannii biofilm = experiment: HTS live biofilm assay (resazurin metabolic activity); format: cell-based, Acinetobacter baumannii; details: for AC50: Acinetobacter baumannii, 10 point dose-response 0.1-50 μM
From the text: as §3, §4

P. aeruginosa biofilm = experiment: as above; format: cell-based; details: Pseudomonas aeruginosa, 10 point dose-response 0.1-50 μM
From the text: as §3, §4

[5] = MH with 1% KNO3, Aerobic, read-out: Minimum Inhibition Concentration
[6] = MH with 1% KNO3, Anaerobic, read-out: Minimum Inhibition Concentration
[7] = MH, Aerobic, read-out: Minimum Inhibition Concentration
[8] = across all growth conditions (aerobic and anaerobic), read-out: concentration required to inhibit planktonic P. aeruginosa growth (MIC)

Cn1sc(Cl)c(C#N)c1=O [Compound 3, 5-chloro-2-methyl-3-oxo-1,2-thiazole-4-carbonitrile]
AC50 (S. epidermidis biofilm [1]): 8610 nM | MIC (A. baumannii): 5 to 6 µM (≈ 0.873 to 1.05 µg/mL) | Minimum Inhibition Concentration (A. baumannii): 6.25 ± 2.21 µM | MIC (P. aeruginosa [2]; [5]): 33.3 ± 8.33 µM (≈ 5.82 µg/mL) | MIC (P. aeruginosa [2]; [6]): 25 µM (≈ 4.37 µg/mL) | MIC (P. aeruginosa [2]; [7]): > 50 µM | MIC (P. aeruginosa [2]; [8]): ≥ 25 µM | AC50 (P. aeruginosa [3]): 9.27 µM | AC50 (S. epidermidis): 8890 nM | AC50 (S. epidermidis biofilm [4]): 8840 nM | AC50 (A. baumannii biofilm): 4.04 µM | AC50 (P. aeruginosa biofilm): 13.4 µM

NC(=S)N1CCN(c2cc3c(cc2F)c(=O)c(C(=O)O)cn3C2CC2)CC1 [Compound 7, 7-(4-carbamothioylpiperazin-1-yl)-1-cyclopropyl-6-fluoro-4-oxoquinoline-3-carboxylic acid]
AC50 (S. epidermidis biofilm [1]): 850 nM | MIC (A. baumannii): 16 µM (≈ 6.25 µg/mL) | Minimum Inhibition Concentration (A. baumannii): 16.67 ± 4.17 µM | MIC (P. aeruginosa [2]; [5]): 5.21 ± 1.04 µM (≈ 2.03 µg/mL) | MIC (P. aeruginosa [2]; [6]): 4.17 ± 1.04 µM (≈ 1.63 µg/mL) | MIC (P. aeruginosa [2]; [7]): 4.7 ± 1.04 µM (≈ 1.84 µg/mL) | MIC (P. aeruginosa [2]; [8]): 4 to 5 µM (≈ 1.56 to 1.95 µg/mL) | AC50 (P. aeruginosa [3]): 3 µM | AC50 (S. epidermidis): 2200 nM | AC50 (S. epidermidis biofilm [4]): 1120 nM | AC50 (A. baumannii biofilm): 8.45 µM | AC50 (P. aeruginosa biofilm): 0.38 µM

O=C(O)c1cn(C2CC2)c2c(F)c(N3CC(O)C3)c(F)cc2c1=O [Compound 8, 1-cyclopropyl-6,8-difluoro-7-(3-hydroxyazetidin-1-yl)-4-oxoquinoline-3-carboxylic acid]
AC50 (S. epidermidis biofilm [1]): < 100 nM | MIC (A. baumannii): ~1 µM (≈ 0.336 µg/mL) | Minimum Inhibition Concentration (P. aeruginosa [2]; MH with 1% KNO3, Anaerobic): 7.81 ± 2.71 µM | MIC (P. aeruginosa [2]; [5]): ≤ 20 µM | MIC (P. aeruginosa [2]; [6]): 7 µM (≈ 2.35 µg/mL) | MIC (P. aeruginosa [2]; [7]): 10.4 ± 2.08 µM (≈ 3.5 µg/mL) | AC50 (P. aeruginosa [3]): 44.4 µM | HTS assay results: Total Bacteria growth (P. aeruginosa [3]; Y / —): —* (AC50 higher than 20 μM) | AC50 (S. epidermidis): < 100 nM | AC50 (S. epidermidis biofilm [4]): < 100 nM | AC50 (A. baumannii biofilm): 2.33 µM | HTS assay results: Live Bacteria (A. baumannii biofilm; Y / —): —* (AC50 higher than 20 μM) | AC50 (P. aeruginosa biofilm): 57 µM

O=C(O)c1cn(C2CC2)c2c(F)c(-c3ccncc3)c(F)cc2c1=O [Compound 11, 7-(4-pyridyl)-1-cyclopropyl-6,8-difluoro-4-oxoquinoline-3-carboxylic acid]
AC50 (S. epidermidis biofilm [1]): < 100 nM | MIC (A. baumannii): 5 to 6 µM (≈ 1.71 to 2.05 µg/mL) | Minimum Inhibition Concentration (A. baumannii): 5.12 ± 1.04 µM | MIC (P. aeruginosa [2]; [5]): > 50 µM | MIC (P. aeruginosa [2]; [6]): 25 ± 12.5 µM (≈ 8.56 µg/mL) | MIC (P. aeruginosa [2]; [7]): > 50 µM | MIC (P. aeruginosa [2]; [8]): ≥ 25 µM | AC50 (P. aeruginosa [3]): 16 µM | AC50 (S. epidermidis): < 100 nM | AC50 (S. epidermidis biofilm [4]): < 100 nM | AC50 (A. baumannii biofilm): 0.61 µM | AC50 (P. aeruginosa biofilm): 9.6 µM
